Test results published in US6569862B1, “Methods for treatment of disorders of cardiac contractility” (Johns Hopkins University, priority 1997, dated 2003).
“Also recorded” adds a separate entry of the source. Blank lines part the entries; values can stand above or below the compound they belong to.

How the values were obtained:
[1] = after a standard dose (300 mg p.o.); cited from earlier work
[2] = system: LV contractility in conscious dogs; assay: cardiac performance in conscious dogs before and after pacing-induced heart failure (pressure-dimension relations); assay type: in vivo; conditions: for PRSW (slope of stroke work/end-diastolic dimension relation): 200 mg infused over 30 minutes in the right atrium
Description: 1. Surgical preparation for chronic dog protocol. Male mongrel dogs (20-30 kg) were anesthetized with 1-2% halothane after induction with sodium pentothal. The chest was opened via a lateral thoracotomy, and indwelling catheters (Tygon; Norton Plastics and Synthetic Division) were secured in the right atrium (for drug infusion) and in the descending aorta (for pressure measurement). An indwelling high fidelity micromanometer (P22, Konigsberg Instruments) was placed in the left ventricle (LV) through an apical stab. […] Pacing leads were attached to the left atrium for acute pacing during experimentation, and epicardial leads for chronic pacing were attached to the right ventricular free wall and connected to a programmable pacemaker (Spectrax, Medtronics) within a subcutaneous pocket. The chest was closed in layers, catheters and leads were externalized to the mid-scapulae, and protected by an external jacket. Analgesia (morphine, 10 mg s.c.) was given in the immediate postoperative period as necessary. Antibiotics were administered for the first 72 hours after surgery. The dogs were allowed to recover fully for 7-10 postoperative days before experimentation. The surgical and experimental protocol was approved by Johns Hopkins School of Medicine Animal Care and Use Committee.
3. Heart failure was induced by chronic rapid ventricular pacing at a rate of 210 bpm for 3 weeks, followed by 240 bpm for one week. […] Acute pacing (140 bpm) was used to keep heart rate constant during the experiments.
a. The analysis of pressure-dimension relationships and the arterial pressure response allowed the evaluation of variables related to myocardial systolic and diastolic performance. […] Preload was indexed as the left ventricular end diastolic anterior -posterior short axis dimension (LVEDD) or the LV end-diastolic volume from the conductance catheter. Afterload was evaluated as effective arterial elastance (Ea, ratio of LV systolic pressure to stroke dimension (Kass, D. A. 1997, Myocardial Mechanics. In Heart Failure. P. Poole-Wilson et al., eds. Churchill Livingstone, New York. 87-108; Kelly, R. P., C. T. Ting, and T. M. Yang. 1992, Circulation 86:513-521). This parameter is not preload-dependent and has been validated to reflect total afterload, which incorporates systemic vascular resistance, aortic impedance, and the reflected wave properties of the vasculature. Contractility was indexed by +dP/dt and the load-independent parameter, preload-recruitable stroke work (PRSW; slope of stoke work/end-diastolic dimension relation) (Kass, D. A., 1986, Circulation 73:586-595). Diastolic performance was measured by peak −dP/dt, time to peak filling rate (ttpf), and the time constant of relaxation (tau). Tau was calculated using the method of Weiss and colleagues (Ingwall, J. S. 1993, Circulation 87:VII-58-VII-62.).
(§1) The ECG was continuously monitored.

[3] = system: canine left ventricle; assay: cardiac energetics (O2 consumption, mechanical efficiency) in anesthetized control and heart failure dogs; assay type: in vivo
Method: 3. Heart failure was induced by chronic rapid ventricular pacing at a rate of 210 bpm for 3 weeks, followed by 240 bpm for one week. This brought the dogs into heart failure with an average left ventricular end-diastolic pressure (LVEDP) of 23.5∀5.2 mm Hg. Acute pacing (140 bpm) was used to keep heart rate constant during the experiments.
b. Oxygen consumption per unit time (MVO2) in the left circumflex artery territory was calculated from the difference in oxygen saturation in simultaneously sampled coronary sinus and aortic blood, multiplied by left circumflex coronary blood flow. This, in turn, was calculated from flow velocity multiplied by left circumflex diameter. Left circumflex diameter was analyzed from a film projector (CAP 35B, Angiogram Projection System) using quantitative angiography (Cath View v1.36, Image Comm Systems).
c. The external useful work of the LV was indexed as stroke work (SW=area of pressure-volume loops). Both stroke SW and MVO2 were converted to Joules per beat (Suga, H. et al. 1983, Circ. Res. 53:306-318). Cardiac mechanical efficiency was calculated as SW/MVO2. Hemodynamic pressure-dimension data were digitized at 200 Hz and stored for subsequent analysis on a personal computer using customized software.
Isoflurane was chosen as the anesthetic because of its relatively mild and stable effect on the cardiovascular system (R M. Jones, British Journal of Anaesthesia, 56 Suppl 1:57S-69S (1984); E. I. Eger, British Journal of Anaesthesia, 56 Suppl 1:71S-99S (1984)). A doppler flow velocimeter (0.014 Cardiometrics) and a 6 Fr. angiography catheter (AL-I or JL 3.5, Cordis Laboratories Inc) were inserted through an 8 Fr sheath (Cordis) in the right femoral artery and advanced to the left circumflex coronary artery. These catheters permitted measurement of coronary flow and injection of contrast for the measurement of coronary diameter. A catheter (A2 multipurpose, 6 Fr.) was advanced from the left external jugular vein via a 7 Fr. sheath (Cordis) into the great cardiac vein for withdrawal of mixed coronary venous blood. To measure cardiac oxygen consumption, blood samples from the coronary sinus and the femoral artery were obtained simultaneously. At each time point, blood flow velocity in the left circumflex artery was measured and coronary angiography was performed.
In 4 of 11 experiments, preexisting indwelling sonomicrometer crystals, Konigsberg micromanometers, and IVC occluders (see above) were used for dimension and pressure measurements, and for acute preload reduction. In the other 7 experiments, a combined micromanometer-conductance catheter (M!illar) was advanced to the LV and positioned for continuous measurement of LV pressure and volume via a 7 Fr. sheath (Cordis) in the femoral artery. A Swan-Ganz catheter (Arrow, 7 Fr.) was advanced via a 9F sheath in the femoral vein to the pulmonary artery for measurement of cardiac output and for hypertonic saline wash-in (Baan, J., E. van der Velde, A. D. van Dijk and et al. 1992, In Cardiovascular system dynamics: Models and measurements. Anonymous Plenum Press, New York, 569; Kass, D. A. et al. 1986. Circulation 73:586-595) to calibrate the volume signal. This catheter was then replaced with a balloon occlusion catheter (Cordis) positioned in the IVC for acute preload reduction for pressure-volume analysis.
A combined manometer-conductance catheter was positioned in the left ventricle for continuous measurement of volume and pressures in the ventricle and aorta. Volume was calibrated with measurement of cardiac output and hypertonic saline wash-in. In addition, dogs were acutely instrumented a doppler flow velocimeter probe and an angiography catheter in the left circumflex coronary artery to measure coronary flow velocity and coronary diameter. […]

[4] = system: cardiac muscle; assay: steady-state analysis of calcium sensitivity (steady-state force versus steady-state [Ca2+]i); assay type: cell-based, rat; conditions: for effects on calcium sensitivity, comparison of the two agents: FIG. 4
Description: A particularly rigorous method of assessing calcium sensitivity is by steady-state analysis by procedures disclosed in Gao, W. D. et al., supra. […] That response represents defining characteristics of a calcium-sensitizing agent.

[5] = value used for the dose extrapolation in 25 kg dogs; cited from earlier work
[6] = plasma level estimate in 25 kg dogs; assay type: in vivo; conditions: 200 mg i.v. in 25 kg dogs
Description: as §1

[7] = system: phosphodiesterase; conditions: stated as well established; cited from earlier work
[8] = system: rat cardiac muscle; assay: in vitro calcium-sensitizing assay: contractile force and fura-2 [Ca2+]i in rat cardiac muscle

plasma level estimated to be attained [6]: 4500 ng/mL
Compound: Oc1ncnc2[nH]ncc12 [allopurinol, 4-hydroxy-pyrazolo[3,4-d]pyrimidine]
plasma levels achieved in humans [1]: 3000 to 9000 ng/mL
effect on healthy dogs ([2]; acted only in dogs with heart failure): did not adversely affect healthy dogs
PRSW (slope of stroke work/end-diastolic dimension relation) ([2]; after pacing-induced heart failure): increased the slope after heart failure
change of (dP/dt)max at the peak response ([2]; control dogs (n=10), 10 min after end of infusion, p=0.01): +8.3±3.2%
(dP/dt)max at the peak response ([2]; control dogs (n=10), 10 min after end of infusion, base line value 3101±162): 3373±225 mm Hg/s
PRSW (slope of stroke work/end-diastolic dimension relation) ([2]; control dogs): did not affect the slope of the PRSW relation; also recorded: not significantly changed
effect on diastolic function ([2]; in vivo use, dogs): no adverse effect on diastolic function
oxygen utilization ([3]; failing canine left ventricle, 200 mg iv): decreases oxygen utilization
myocardial arterio-venous oxygen difference ([3]; heart failure dogs, 200 mg iv): not changed
change in left circumflex blood flow ([3]; heart failure dogs, 10 min post-infusion of 200 mg iv over 30 minutes, p=0.0015): −40±6%
effects on calcium sensitivity, comparison of the two agents [4]: essentially indistinguishable effects on calcium sensitivity
maximal force ([4]; steady-state analysis, FIG. 2): increased maximal force
contractile activation curve (steady-state force vs steady-state [Ca2+]i) ([4]; versus control muscles exposed to no drug, FIG. 2): shifted the contractile activation curve to lower [Ca^2+]i
distribution volume [5]: 1.6 L/kg
phosphodiesterase inhibition [7]: no phosphodiesterase inhibition
calcium ion concentration ([Ca2+]i) ([8]; fura-2, FIG. 1): decreasing calcium ion concentration
contractile force ([8]; relative to control not exposed, FIG. 1): increases contractile force

Compound: CC(CCc1ccc(O)cc1)NCCc1ccc(O)c(O)c1 (centres unmarked) [dobutamine]
increase of oxygen consumption ([3]; heart failure dogs, infusion 10 μg/Kg/min, p=0.007): 145±53.0%
change of SW/MVO2 ([3]; heart failure dogs, infusion 10 μg/Kg/min, p=0.05): −29.3±6.8%
mechanical efficiency ([3]; heart failure dogs, infusion 10 μg/Kg/min, FIG. 9): significant decrease in mechanical efficiency

Compound: Oc1nc(O)c2cn[nH]c2n1 [oxypurinol, 4,6-dihydroxypyrazolo[3,4-d]pyrimidine]
effects on calcium sensitivity, comparison of the two agents [4]: essentially indistinguishable effects on calcium sensitivity
force at any given [Ca2+]i ([4]; treated versus control muscles, FIG. 3): generate more force at any given [Ca^2+]i than control muscles
